Results: patent US8173672B2, “Quinolizidinone M1 receptor positive allosteric modulators” (Merck Sharp & Dohme Corp., priority 2008, dated 2012)

Biological target: T1, acetylcholine muscarinic M1 receptor (Homo sapiens, UniProt P11229)
T1 construct: expressed in transfected cells; host or cells: CHOnfat (CHO cells; also called CHOK1/hM1), selected with Geneticin
T1 sequence (P11229 1-460): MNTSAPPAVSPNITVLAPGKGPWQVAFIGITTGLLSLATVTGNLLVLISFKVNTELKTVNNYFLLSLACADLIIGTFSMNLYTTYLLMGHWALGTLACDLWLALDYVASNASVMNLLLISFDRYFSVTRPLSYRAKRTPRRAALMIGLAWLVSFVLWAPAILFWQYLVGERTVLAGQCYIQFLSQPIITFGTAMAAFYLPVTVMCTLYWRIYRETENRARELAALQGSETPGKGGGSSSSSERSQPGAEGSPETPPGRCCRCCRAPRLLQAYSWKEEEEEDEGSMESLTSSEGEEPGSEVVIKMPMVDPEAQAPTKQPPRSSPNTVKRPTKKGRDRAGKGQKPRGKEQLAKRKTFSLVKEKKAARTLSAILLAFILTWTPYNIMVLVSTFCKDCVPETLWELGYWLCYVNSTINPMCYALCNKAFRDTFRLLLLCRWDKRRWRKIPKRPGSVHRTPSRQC
Assay: muscarinic FLIPR assay: potentiation of acetylcholine (EC20)-stimulated intracellular calcium in CHOnfat/hM1 cells
Type: cell-based
Settings: 4 min preincubation, then EC20 acetylcholine (3 nM final), read-out: IP Value (inflection point)
Experimental: The assay studies the effect of one or several concentrations of test compounds on basal or acetylcholine-stimulated Ca^2+ levels using FLIPR.
Compounds are prepared and subjected to a preincubation period of 4 min. Thereafter, a single EC20 concentration of acetylcholine is added to each well (3 nM final). The intracellular Ca^2+ level of each sample is measured and compared to an acetylcholine control to determine any modulatory activity.
Cells: CHOnfat/hM1, hM2, hM3 or hM4 cells are plated 24 hr before the assay at a density of 18,000 cells/well (100 μL) in a 384 well plate. CHOnfat/hM1 and CHOnfat/hM3 Growth Medium: 90% DMEM (Hi Glucose); 10% HI FBS; 2 mM L-glutamine; 0.1 mM NEAA; Pen-Strep; and 1 mg/ml Geneticin, are added. For M2Gqi5CHOnfat and M4Gqi5CHOnfat cells, an additional 600 μg/ml hygromycin is added.
Equipment: 384 well plate, 120 μL addition plate; 96-well Whatman 2 ml Uniplate Incubator, 37° C., 5% CO2; Skatron EMBLA-384 Plate Washer; Multimek Pipetting System; Genesis Freedom 200 System; Mosquito System; Temo Nanolitre Pipetting System; and FLIPR^384 Fluorometric Imaging Plate Reader System are used.
Buffers. Assay Buffer: Hanks Balanced Salt Solution, with 20 mM Hepes, 2.5 mM Probenecid (Sigma P-8761) first dissolved in 1N aqueous NaOH, 1% Bovine Serum Albumin (Sigma A-9647). Dye Loading Buffer: Assay Buffer plus 1% Fetal Bovine Serum and Fluo-4AM/Pluronic Acid Mixture. 2 mM Fluo-4AM ester stock in DMSO (Molecular Probes F-14202) Concentration of 2 μM in buffer for a final concentration of 1 μM in Assay. 20% Pluronic Acid Solution stock, with a concentration of 0.04% in Buffer, 0.02% in Assay.
65 μl of 2 mM Fluo-4AM are mixed with 130 μL of 20% Pluronic Acid. The resulting solution and 650 μL FBS is added to the assay buffer for a total volume of 65 mL. Positive Controls: 4-Br-A23187: 10 mM in DMSO; final concentration 10 μM. Acetylcholine: 10 mM in water, working stock at both 20 μM and 30 μM in assay buffer, final concentration of 10 μM. This is used to check the maximum stimulation of the CHOK1/hM1 cells. 20 μM (2×) acetylcholine is added in the preincubation part of the assay, and the 30 μM (3×) stock is added in the second part. (EC20) Acetylcholine: 10 mM in water, working stock of 9 nM (3×), and final concentration in assay is 3 nM. This is used after the preincubation with test compounds. Addition of the EC20 Acetylcholine to each well with a test compound will ascertain any modulator activity. 24 wells contain 3 nM Acetylcholine alone as a control.
Determining Activity of Putative Compounds:
Screening Plate: Compounds are titrated in 96-well plates (columns 2-11), 100% DMSO, started at a concentration of 15 mM (150× stock concentration), and 3-fold serial dilutions using Genesis Freedom200 System. Four 96-well plates are combined into a 384-well plate using Mosquito Nanolitre Pipetting System by transferring 1 μl of serial diluted compounds to each well, and 1 mM acetylcholine (100× stock concentration) were added as a control. Using Temo, 49 μl assay buffer is added to each well of the 384-well plate right before assay.
In a 96-well Whatman 2 ml Uniplate, 9 nM Acetylcholine (3×) is pipetted into wells corresponding to the screening compounds and into control wells. The 30 μM acetylcholine control (3×) is added into control wells and the 3× agonist plate is transferred into a 384-well plate.
Cells are washed three times with 100 μL of buffer, leaving 30 μL of buffer in each well. Using Multimek, 30 μL of Dye Loading Buffer is added into each well and incubated at 37° C., 5% CO2 for up to one hr.
After 60 min, the cells are washed three times with 100 μL of buffer, leaving 30 μL of buffer in each well. The cell plate, screening plate, and agonist addition plates are placed on the platform in the FLIPR and the door is closed. A signal test to check background fluorescence and basal fluorescence signal is performed. Laser intensity is adjusted if necessary. […]

Row | Compound | EC50 [nM]
1 | O=C(O)c1cc(CN2CCc3cc(Cl)ccc3C2)c2ccccn2c1=O [Example 1, 1-[(6-chloro-3,4-dihydroisoquinolin-2(1H)-yl)methyl]-4-oxo-4H-quinolizine-3-carboxylic acid] | 510
2 | O=C(O)c1cc(CN2CCc3ccccc3C2)c2ccccn2c1=O [Example 6] | 1720
3 | O=C(O)c1cc(CN2Cc3ccccc3C[C@@H]2CO)c2ccccn2c1=O [Example 7] | 8980
4 | CCOC(=O)C1c2ccccc2CCN1Cc1cc(C(=O)O)c(=O)n2ccccc12 (centres unmarked) [Example 11] | 286
5 | O=C(O)c1cc(CN2CCc3ccccc3C2c2ccncc2)c2ccccn2c1=O (centres unmarked) [Example 17] | 84
6 | O=C(O)c1cc(CN2CCc3ccccc3C2c2ccccc2F)c2ccccn2c1=O (centres unmarked) [Example 18] | 150
7 | O=C(O)c1cc(CN2CCc3cnccc3C2)c2ccccn2c1=O [Example 54] | 900
8 | O=C(O)c1cc(CN2CCn3c(-c4ccccc4)cnc3C2)c2ccccn2c1=O [Example 69] | 4180
9 | O=C(O)c1cc(CN2CCc3cc(-c4ccccc4)ccc3C2)c2ccccn2c1=O [Example 87, 4-Oxo-1-[(6-phenyl-3,4-dihydroisoquinolin-2(1H)-yl)methyl]-4H-quinolizine-3-carboxylic acid] | 6200
10 | N#Cc1ccc2c(c1)CCN(Cc1cc(C(=O)O)c(=O)n3ccccc13)C2 [Example 88, 1-[(6-cyano-3,4-dihydroisoquinolin-2(1H)-yl)methyl]-4-oxo-4H-quinolizine-3-carboxylic acid] | 12000
11 | Cc1ccc2c(c1)CCN(Cc1cc(C(=O)O)c(=O)n3ccccc13)C2 [Example 89, 1-[(6-methyl-3,4-dihydroisoquinolin-2(1H)-yl)methyl]-4-oxo-4H-quinolizine-3-carboxylic acid] | 6700
